≈ marks a conversion by molar mass, not a printed value. One block for each molecule: values may come before it.
Legend:
[1] = test system: RPMI8226 (multiple myeloma); assay: MTT growth inhibition of multiple myeloma cells, 72 h; assay type: cell-based, human; settings: Homo sapiens, RPMI 8226, 72 h; for IC50: read-out: IC50; for IC90: read-out: IC90
Summary of the method: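 RPMI8226 myeloma cells, 6000 per well in 1640 medium with 10% FBS, exposed to compounds at a range of concentrations (diluted from 10 mg/mL DMSO stock) for 72 h at 37° C, 5% CO2. Viable cells then determined by MTT.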

[2] = test system: SK-OV-3 (ovarian cancer cell); assay: MTT growth inhibition of human solid tumor cells, 72 h; assay type: cell-based; settings: Homo sapiens, SK-OV-3, 72 h; for IC50: read-out: IC50; for IC90: read-out: IC90
Summary of the method: (§1)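 After a 24 h settling period at 37° C and 5% CO2, cultures of 4000 cells per well in high-glucose DMEM with 10% serum received the tanshinone I derivatives at varied concentrations; surviving cell numbers were then measured.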

[3] = test system: Hep G2 (human liver cancer cell); assay: as above; assay type: cell-based; settings: Homo sapiens, HepG2, Hep G2, 72 h; for IC50: read-out: IC50; for IC90: read-out: IC90
Summary of the method: as §1

[4] = test system: U87 MG (malignant glioma cell); assay: as above; assay type: cell-based; settings: Homo sapiens, U-87 MG, U87-MG, 72 h; for IC50: read-out: IC50; for IC90: read-out: IC90
Summary of the method: as §1

[5] = test system: Hep-2 (laryngeal carcinoma); assay: as above; assay type: cell-based; settings: Homo sapiens, HEp-2, 72 h; for IC50: read-out: IC50; for IC90: read-out: IC90
Summary of the method: as §1

A549 (human lung cancer) = assay: as above; assay type: cell-based; settings: Homo sapiens, A549, 72 h; for IC50: read-out: IC50; for IC90: read-out: IC90
Summary of the method: as §1

[6] = test system: MGC 803 (human gastric cancer cell); assay: as above; assay type: cell-based; settings: Homo sapiens, MGC-803, 72 h; for IC50: read-out: IC50; for IC90: read-out: IC90
Summary of the method: as §1

[7] = test system: CaES-17 (esophageal cancer cell); assay: as above; assay type: cell-based; settings: Homo sapiens, CaEs17, CaEs-17, 72 h; for IC50: read-out: IC50; for IC90: read-out: IC90
Summary of the method: as §1

[8] = test system: PANC-1 (pancreatic cancer); assay: as above; assay type: cell-based; settings: Homo sapiens, PANC-1, 72 h; for IC50: read-out: IC50; for IC90: read-out: IC90
Summary of the method: as §1

[9] = test system: Hela (human cervical cancer cell); assay: as above; assay type: cell-based; settings: Homo sapiens, HeLa, 72 h; for IC50: read-out: IC50; for IC90: read-out: IC90
Summary of the method: as §1

[10] = test system: CNE (nasopharyngeal carcinoma cell); assay: as above; assay type: cell-based; settings: Homo sapiens; for IC50: read-out: IC50; for IC90: read-out: IC90
Summary of the method: as §1

[11] = test system: RKO (human colon adenocarcinoma cell); assay: as above; assay type: cell-based; settings: Homo sapiens; for IC50: read-out: IC50; for IC90: read-out: IC90
Summary of the method: as §1

[12] = test system: Becap37 (human breast cancer cell); assay: as above; assay type: cell-based; settings: Homo sapiens, Becap-37, 72 h; for IC50: read-out: IC50; for IC90: read-out: IC90
Summary of the method: as §1

MG63 (osteosarcoma) = assay: as above; assay type: cell-based; settings: for IC50 / IC90: Homo sapiens, MG-63, 72 h; for IC50: read-out: IC50; for IC90: read-out: IC90
Summary of the method: as §1

PC-3 (prostate cancer) = assay: as above; assay type: cell-based; settings: Homo sapiens, PC-3, 72 h; for IC50: read-out: IC50; for IC90: read-out: IC90
Summary of the method: as §1

[13] = test system: K562/adr (drug-resistant, chronic myeloid leukemia, CML); assay: MTT growth inhibition of leukemia cells, 72 h; assay type: cell-based, human; settings: Homo sapiens, K562/Adr; for IC50: read-out: IC50; for IC90: read-out: IC90
Summary of the method: (§2)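 MTT assay of viable cells following 72 h compound treatment at 37 °C. Cultures contained 6000 cells per well in RPMI-1640 plus 10% fetal bovine serum.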

[14] = test system: H9 (acute lymphoblastic leukemia, ALL); assay: MTT growth inhibition of leukemia cells, 72 h; assay type: cell-based, human; settings: Homo sapiens, H9, 72 h; for IC50: read-out: IC50; for IC90: read-out: IC90
Summary of the method: as §2

[15] = test system: Jurkat (acute lymphoblastic leukemia, ALL); assay: MTT growth inhibition of leukemia cells, 72 h; assay type: cell-based, human; settings: Homo sapiens, 72 h; for IC50: read-out: IC50; for IC90: read-out: IC90
Summary of the method: as §2

[16] = test system: NB4 (acute promyelocytic leukemia, AML); assay: MTT growth inhibition of leukemia cells, 72 h; assay type: cell-based, human; settings: Homo sapiens, NB4, 72 h; for IC50: read-out: IC50; for IC90: read-out: IC90
Summary of the method: as §2

[17] = test system: Kasumi-1 (acute myeloid leukemia M2 type, AML-M2); assay: MTT growth inhibition of leukemia cells, 72 h; assay type: cell-based, human; settings: Homo sapiens, Kasumi-1, 72 h; for IC50: read-out: IC50; for IC90: read-out: IC90
Summary of the method: as §2

IC50 [1]: 8.4 µg/mL (≈ 23.2 µM) | IC90 [1]: > 16 µg/mL | IC50 [2]: > 16 µg/mL | IC90 [2]: > 16 µg/mL | IC50 [3]: 10.6 µg/mL (≈ 29.2 µM) | IC90 [3]: > 16 µg/mL | IC50 [4]: > 16 µg/mL | IC90 [4]: > 16 µg/mL | IC50 [5]: 6.82 µg/mL (≈ 18.8 µM) | IC90 [5]: > 16 µg/mL | IC50 (A549 (human lung cancer)): 10.6 µg/mL (≈ 29.1 µM) | IC90 (A549 (human lung cancer)): 24.2 µg/mL (≈ 66.9 µM) | IC50 [6]: 9.22 µg/mL (≈ 25.4 µM) | IC90 [6]: 23.2 µg/mL (≈ 64.2 µM) | IC50 [7]: 15.5 µg/mL (≈ 42.7 µM) | IC90 [7]: > 16 µg/mL | IC50 [8]: 3.08 µg/mL (≈ 8.5 µM) | IC90 [8]: 13.3 µg/mL (≈ 36.8 µM) | IC50 [9]: 5 µg/mL (≈ 13.8 µM) | IC90 [9]: > 16 µg/mL | IC50 [10]: 8.5 µg/mL (≈ 23.5 µM) | IC90 [10]: > 16 µg/mL | IC50 [11]: 2.77 µg/mL (≈ 7.64 µM) | IC90 [11]: > 16 µg/mL | IC50 [12]: 14.2 µg/mL (≈ 39.3 µM) | IC90 [12]: > 16 µg/mL | IC50 (MG63 (osteosarcoma)): 4.86 µg/mL (≈ 13.4 µM) | IC90 (MG63 (osteosarcoma)): > 16 µg/mL | IC50 (PC-3 (prostate cancer)): 14.4 µg/mL (≈ 39.8 µM) | IC90 (PC-3 (prostate cancer)): > 16 µg/mL | IC50 [13]: 2.3 µg/mL (≈ 6.35 µM) | IC90 [13]: 6.61 µg/mL (≈ 18.2 µM) | IC50 [14]: 6.4 µg/mL (≈ 17.7 µM) | IC90 [14]: > 16 µg/mL | IC50 [15]: 5.54 µg/mL (≈ 15.3 µM) | IC90 [15]: 17.1 µg/mL (≈ 47 µM) | IC50 [16]: 1.93 µg/mL (≈ 5.33 µM) | IC90 [16]: 9.65 µg/mL (≈ 26.6 µM) | IC50 [17]: 2.35 µg/mL (≈ 6.48 µM) | IC90 [17]: 7.79 µg/mL (≈ 21.5 µM)
SMILES: CCC(=O)OCc1oc2c(c1C)C(=O)C(=O)c1c-2ccc2c(C)cccc12 [BS-TA-A03]

IC50 [1]: 0.52 µg/mL (≈ 1.27 µM) | IC90 [1]: 2.9 µg/mL (≈ 7.08 µM) | IC50 [2]: 5.41 µg/mL (≈ 13.2 µM) | IC90 [2]: 22.8 µg/mL (≈ 55.8 µM) | IC50 [3]: 1.25 µg/mL (≈ 3.05 µM) | IC90 [3]: 9.41 µg/mL (≈ 23 µM) | IC50 [4]: 0.74 µg/mL (≈ 1.81 µM) | IC90 [4]: 8 µg/mL (≈ 19.5 µM) | IC50 [5]: 0.88 µg/mL (≈ 2.15 µM) | IC90 [5]: 29.6 µg/mL (≈ 72.3 µM) | IC50 (A549 (human lung cancer)): 1.7 µg/mL (≈ 4.15 µM) | IC90 (A549 (human lung cancer)): 17 µg/mL (≈ 41.5 µM) | IC50 [6]: 0.79 µg/mL (≈ 1.93 µM) | IC90 [6]: 7.25 µg/mL (≈ 17.7 µM) | IC50 [7]: 0.97 µg/mL (≈ 2.37 µM) | IC90 [7]: 3.81 µg/mL (≈ 9.3 µM) | IC50 [8]: 0.81 µg/mL (≈ 1.98 µM) | IC90 [8]: 16 µg/mL (≈ 39.1 µM) | IC50 [9]: 1.31 µg/mL (≈ 3.2 µM) | IC90 [9]: 16.2 µg/mL (≈ 39.6 µM) | IC50 [10]: 0.817 µg/mL (≈ 2 µM) | IC90 [10]: 39 µg/mL (≈ 95.2 µM) | IC50 [11]: 0.17 µg/mL (≈ 0.415 µM) | IC90 [11]: 16 µg/mL (≈ 39.1 µM) | IC50 [12]: 0.43 µg/mL (≈ 1.05 µM) | IC90 [12]: 3.73 µg/mL (≈ 9.11 µM) | IC50 (MG63 (osteosarcoma)): 0.38 µg/mL (≈ 0.928 µM) | IC90 (MG63 (osteosarcoma)): 14.9 µg/mL (≈ 36.5 µM) | IC50 (PC-3 (prostate cancer)): 1.83 µg/mL (≈ 4.47 µM) | IC90 (PC-3 (prostate cancer)): 16 µg/mL (≈ 39.1 µM) | IC50 [13]: 1.13 µg/mL (≈ 2.76 µM) | IC90 [13]: 2.95 µg/mL (≈ 7.2 µM) | IC50 [14]: 0.7 µg/mL (≈ 1.71 µM) | IC90 [14]: 2.3 µg/mL (≈ 5.62 µM) | IC50 [15]: 0.96 µg/mL (≈ 2.34 µM) | IC90 [15]: 5.3 µg/mL (≈ 12.9 µM) | IC50 [16]: 0.26 µg/mL (≈ 0.635 µM) | IC90 [16]: 0.96 µg/mL (≈ 2.34 µM) | IC50 [17]: 0.66 µg/mL (≈ 1.61 µM) | IC90 [17]: 1.91 µg/mL (≈ 4.66 µM)
SMILES: Cc1c(CN(C)Cc2ccccc2)oc2c1C(=O)C(=O)c1c-2ccc2c(C)cccc12 [BS-TA-B01]
improvement of anti-MG63 activity as compared with tanshinone I (MG63 (osteosarcoma); MG63, vs tanshinone I): ~3 fold

IC50 [1]: 2.83 µg/mL (≈ 8.15 µM) | IC90 [1]: 5.87 µg/mL (≈ 16.9 µM) | IC50 [2]: 12.8 µg/mL (≈ 36.9 µM) | IC90 [2]: 21.7 µg/mL (≈ 62.4 µM) | IC50 [3]: 4.69 µg/mL (≈ 13.5 µM) | IC90 [3]: 22.1 µg/mL (≈ 63.6 µM) | IC50 [4]: 2.36 µg/mL (≈ 6.79 µM) | IC90 [4]: 3.85 µg/mL (≈ 11.1 µM) | IC50 [5]: 6.11 µg/mL (≈ 17.6 µM) | IC90 [5]: 18.5 µg/mL (≈ 53.1 µM) | IC50 (A549 (human lung cancer)): 0.8 µg/mL (≈ 2.3 µM) | IC90 (A549 (human lung cancer)): 4.43 µg/mL (≈ 12.8 µM) | IC50 [6]: 3.86 µg/mL (≈ 11.1 µM) | IC90 [6]: 7.99 µg/mL (≈ 23 µM) | IC50 [7]: 5.55 µg/mL (≈ 16 µM) | IC90 [7]: 10.3 µg/mL (≈ 29.8 µM) | IC50 [8]: 3.14 µg/mL (≈ 9.04 µM) | IC90 [8]: 16 µg/mL (≈ 46.1 µM) | IC50 [9]: 3.99 µg/mL (≈ 11.5 µM) | IC90 [9]: 11 µg/mL (≈ 31.5 µM) | IC50 [10]: 8.8 µg/mL (≈ 25.3 µM) | IC90 [10]: 43.6 µg/mL (≈ 125 µM) | IC50 [11]: 0.49 µg/mL (≈ 1.41 µM) | IC90 [11]: 14.6 µg/mL (≈ 41.9 µM) | IC50 [12]: 4 µg/mL (≈ 11.5 µM) | IC90 [12]: 9.37 µg/mL (≈ 27 µM) | IC50 (MG63 (osteosarcoma)): 4.53 µg/mL (≈ 13 µM) | IC90 (MG63 (osteosarcoma)): 13 µg/mL (≈ 37.4 µM) | IC50 (PC-3 (prostate cancer)): 5.39 µg/mL (≈ 15.5 µM) | IC90 (PC-3 (prostate cancer)): 12.3 µg/mL (≈ 35.5 µM) | IC50 [13]: 1.22 µg/mL (≈ 3.51 µM) | IC90 [13]: 2.69 µg/mL (≈ 7.74 µM) | IC50 [14]: 3.3 µg/mL (≈ 9.5 µM) | IC90 [14]: 6.8 µg/mL (≈ 19.6 µM) | IC50 [15]: 2.36 µg/mL (≈ 6.79 µM) | IC90 [15]: 6.15 µg/mL (≈ 17.7 µM) | IC50 [16]: 0.92 µg/mL (≈ 2.65 µM) | IC90 [16]: 3.01 µg/mL (≈ 8.66 µM) | IC50 [17]: 0.81 µg/mL (≈ 2.33 µM) | IC90 [17]: 2 µg/mL (≈ 5.76 µM)
SMILES: CCN(C)Cc1oc2c(c1C)C(=O)C(=O)c1c-2ccc2c(C)cccc12 [BS-TA-B03]

From US9328083B2, “2-aminated methylene or 2-esterified methylene tanshinone derivatives, and preparation method and application thereof” (HANGZHOU BENSHENG PHARMACEUTICAL CO., LTD., priority 2011, dated 2016)
